Results reported in patent US10501482B2, “Compounds for treating spinal muscular atrophy” (Hoffmann-La Roche Inc., priority 2013, dated 2019).
Where a name gives a salt, the structure may show the parent alone.

Experiments:
[1] = tested on: full length SMN2 minigene mRNA (FL SMN2mini) in HEK293H cells stably transfected with the SMN2-A minigene construct; experiment: SMN2 minigene mRNA splicing RT-qPCR assay in cultured cells; assay type: cell-based; conditions: Homo sapiens, HEK293-H, 24 hours, 7-point concentration curve, concentration giving 1.5-fold FL SMN2mini mRNA vs vehicle, read-out: EC1.5x minigene (EC1.5x concentration for production of full length SMN2 minigene mRNA)
Method: The reverse transcription-quantitative PCR-based (RT-qPCR) assay is used to quantify the level of the full length SMN2 minigene (referred to herein by the term “FL SMN2mini”) mRNA containing SMN2 exon 7 in a HEK293H cell line stably transfected with said minigene and treated with a test compound.
The SMN2-A minigene construct was prepared as described in International Patent Application WO2009/151546A1 page 145 paragraph [00400] to page 147 paragraph [00412](incl. FIG. 1 and FIG. 3 therein).
HEK293H cells stably transfected with the SMN2-A minigene construct (10,000 cells/well) are seeded in 200 μL of cell culture medium (DMEM plus 10% FBS, with 200 μg/mL hygromycin) in 96-well flat-bottom plates and the plate is immediately swirled to ensure proper dispersal of cells and the formation of an even monolayer of cells. Cells are allowed to attach for 6 hours. […] A solution of test compound (1 μL, 200× in DMSO) is added to each cell-containing well and the plate is incubated for 24 hours in a cell culture incubator (37° C., 5% CO2, 100% relative humidity). 2 replicates are prepared for each test compound concentration. The cells are then lysed in the Cells-To-Ct lysis buffer and the lysate is stored at −80° C.
Full length SMN2-A minigene and GAPDH mRNA are quantified using the primers and probes referenced in Table 1. Primer SMN Forward A (SEQ ID NO.1) hybridizes to a nucleotide sequence in exon 7 (nucleotide 22 to nucleotide 40), primer SMN Reverse A (SEQ ID NO.2) hybridizes to a nucleotide sequence in the coding sequence of Firefly luciferase, SMN Probe A (SEQ ID NO.3) hybridizes to a nucleotide sequence in exon 7 (nucleotide 50 to nucleotide 54) and exon 8 (nucleotide 1 to nucleotide 21). The combination of these three oligonucleotides detects only SMN1 or SMN2 minigenes (RT-qPCR) and will not detect endogenous SMN1 or SMN2 genes.
The SMN forward and reverse primers are used at final concentrations of 0.4 μM. The SMN probe is used at a final concentration of 0.15 μM. The GAPDH primers are used at final concentrations of 0.2 μM and the probe at 0.15 μM.
The SMN2-minigene GAPDH mix (15 μL total volume) is prepared by combining 7.5 μL of 2×RT-PCR buffer, 0.4 μL of 25×RT-PCR enzyme mix, 0.75 μL of 20×GAPDH primer-probe mix, 4.0075 μL of water, 2 μL of 10-fold diluted cell lysate, 0.06 μL of 100 μM SMN forward primer, 0.06 μL of 100 μM SMN reverse primer, and 0.225 μL of 100 μM SMN probe.
PCR is carried out at the following temperatures for the indicated time: Step 1: 48° C. (15 min); Step 2: 95° C. (10 min); Step 3: 95° C. (15 sec); Step 4: 60° C. (1 min); then repeat Steps 3 and 4 for a total of 40 cycles.
Each reaction mixture contains both SMN2-A minigene and GAPDH primers/probe sets (multiplex design), allowing simultaneous measurement of the levels of two transcripts.
The increase in the abundance of the FL SMN2mini mRNA relative to that in cells treated with vehicle control is determined from real-time PCR data using a modified ΔΔCt method (as described in Livak and Schmittgen, Methods, 2001, 25:402-8). The amplification efficiency E is calculated from the slope of the amplification curve for FL SMN2mini and GAPDH individually. The abundance of FL SMN2mini and GAPDH mRNA are then calculated as (1+E)^−Ct, where Ct is the threshold value for each amplicon. The abundance of FL SMN2mini mRNA is normalized to GAPDH mRNA abundance. The normalized FL SMN2mini mRNA abundance from test compound-treated samples is then divided by normalized FL SMN2mini mRNA abundance from vehicle-treated cells to determine the level of FL SMN2mini mRNA relative to vehicle control.
Table 2 provides EC1.5x concentrations for production of full length SMN2 minigene mRNA that was obtained from the 7-point concentration data generated according to the above procedure for particular compounds of the present invention.

[2] = tested on: SMN protein; experiment: SMN protein assay (HTRF) in cultured SMA patient fibroblast cells; assay type: cell-based; conditions: SMA Type 1 human fibroblasts GM03813, 48 hours; for EC1.5x SMN protein (EC1.5x concentration for SMN protein expression): 7-point concentration curve, concentration giving 1.5 times SMN protein vs vehicle; for max. fold increase (maximum fold increase of SMN protein): 7-point concentration data, fold vs vehicle control
Method: The SMN HTRF (homogeneous time resolved fluorescence) assay is used to quantify the level of SMN protein in SMA patient fibroblast cells treated with test compounds.
Cells are thawed and cultured in DMEM-10% FBS for 72 hours. Cells are trypsinized, counted and re-suspended to a concentration of 25,000 cells/mL in DMEM-10% FBS. The cell suspensions are plated at 5,000 cells per well in a 96 well microtiter plate and incubated for 3 to 5 hours. […] 1 μL of test compound solution is transferred to cell-containing wells and cells are incubated for 48 hours in a cell culture incubator (37° C., 5% CO2, 100% relative humidity). Triplicate samples are set up for each test compound concentration. After 48 hours, the supernatant is removed from the wells and 25 μL of the RIPA lysis buffer, containing protease inhibitors, is added to the wells and incubated with shaking at room temperature for 1 hour. 25 μL of the diluent is added and then 35 μL of the resulting lysate is transferred to a 384-well plate, where each well contains 5 μL of the antibody solution (1:100 dilution of anti-SMN d2 and anti-SMN kryptate in SMN reconstitution buffer). The plate is centrifuged for 1 minute to bring the solution to the bottom of the wells, then incubated overnight at room temperature. Fluorescence for each well of the plate at 665 nm and 620 nm is measured on an EnVision multilabel plate reader (Perkin-Elmer).
The normalized fluorescence signal is calculated for each sample, Blank and vehicle control well by dividing the signal at 665 nm by the signal at 620 nm. Normalizing the signal accounts for possible fluorescence quenching due to the matrix effect of the lysate. The ΔF value (a measurement of SMN protein abundance as a percent value) for each sample well is calculated by subtracting the normalized average fluorescence for the Blank control wells from the normalized fluorescence for each sample well, then dividing this difference by the normalized average fluorescence for the Blank control wells and multiplying the resulting value by 100. The ΔF value for each sample well represents the SMN protein abundance from test compound-treated samples. The ΔF value for each sample well is divided by the ΔF value for the vehicle control wells to calculate the fold increase in SMN protein abundance relative to the vehicle control. Table 3 provides EC1.5x concentrations for SMN protein expression that was obtained from the 7-point concentration data generated according to the above procedure for particular compounds of the present invention.
Table 4 provides the maximum fold increase of SMN protein that was obtained from the 7-point concentration data generated according to the above procedure for particular compounds of the present invention

SMILES	EC (1.5-fold) [1] [µM]	EC1.5x SMN protein (EC1.5x concentration for SMN protein expression) [2] [µM]	max. fold increase (maximum fold increase of SMN protein) [2]
Cc1nc2ccc(NC(=O)c3ccc(N4CCNC(C)C4)cc3F)cc2o1 (racemic) [Example 38, rac-2-fluoro-N-(2-methylbenzo[d]-oxazol-6-yl)-4-(3-methylpiperazin-1-yl)benzamide dihydrochloride]	0.472	0.6124	1.8706
Cc1cn2cc(NC(=O)c3ccc(N4CCNC(C)C4)cc3F)cc(F)c2n1 (racemic) [Example 39, rac-2-fluoro-N-(8-fluoro-2-methyl-imidazo[1,2-a]-pyridin-6-yl)-4-(3-methylpiperazin-1-yl)benzamide dihydrochloride]	0.0168	0.0147	1.8791
Cc1cn2cc(NC(=O)c3ccc(N4CCNC(C)C4)nc3)cc(F)c2n1 (racemic) [Example 42, rac-N-(8-fluoro-2-methylimidazo-[1,2-a]pyridin-6-yl)-6-(3-methyl-piperazin-1-yl)-nicotinamide dihydrochloride]	0.0544	0.1488	1.6988
Cc1cn2cc(NC(=O)c3ccc(N4CCNC(C)C4)cn3)cc(F)c2n1 (racemic) [Example 43, rac-N-(8-fluoro-2-methylimidazo[1,2-a]pyridin-6-yl)-5-(3-methylpiperazin-1-yl)picolinamide dihydrochloride]	0.057	0.104	1.7873
Cc1cn2cc(NC(=O)c3ccc(N4CCNC(C)C4)c(F)c3F)cc(F)c2n1 (racemic) [Example 45, rac-2,3-difluoro-N-(8-fluoro-2-methylimidazo[1,2-a]pyridin-6-yl)-4-(3-methylpiperazin-1-yl)benzamide hydrochloride]	0.0615	0.5147	1.6445
Cc1cn2cc(NC(=O)c3cc(F)c(N4CCNC(C)C4)cc3F)cc(F)c2n1 (racemic) [Example 46, rac-2,5-difluoro-N-(8-fluoro-2-methyl-imidazo[1,2-a]-pyridin-6-yl)-4-(3-methylpiperazin-1-yl)benzamide hydrochloride]	0.0887	0.3584	1.5572
Cc1cn2cc(NC(=O)c3cnc(N4CCNC(C)C4)c(F)c3)cc(F)c2n1 (racemic) [Example 47, rac-5-fluoro-N-(8-fluoro-2-methyl-imidazo[1,2-a]-pyridin-6-yl)-6-(3-methylpiperazin-1-yl)nicotinamide hydrochloride]	0.396	0.611	1.7065
Cc1cn2cc(NC(=O)c3ncc(N4CCNC(C)C4)cc3F)cc(F)c2n1 (racemic) [Example 48, rac-3-fluoro-N-(8-fluoro-2-methyl-imidazo[1,2-a]-pyridin-6-yl)-5-(3-methylpiperazin-1-yl)picolinamide hydrochloride]	0.0164	0.0621	1.738
Cc1cn2cc(NC(=O)c3c(F)cc(N4CCNC(C)C4)cc3F)cc(F)c2n1.Cl (racemic) [Example 49, rac-2,6-difluoro-N-(8-fluoro-2-methyl-imidazo[1,2-a]-pyridin-6-yl)-4-(3-methylpiperazin-1-yl)benzamide hydrochloride]	0.0107	0.1733	1.658
Cc1cn2cc(NC(=O)c3ccc(N4CCNC(C)C4)cc3F)c(C)cc2n1 (racemic) [Example 52, rac-N-(2,7-dimethyl-imidazo[1,2-a]-pyridin-6-yl)-2-fluoro-4-(3-methyl-piperazin-1-yl)-benzamide dihydrochloride]	0.04	0.1518	1.8152
Cc1cn2cc(NC(=O)c3cnc(N4CCNC(C)C4)c(F)c3)cc(Cl)c2n1 (racemic) [Example 53, rac-N-(8-chloro-2-methylimidazo-[1,2-a]pyridin-6-yl)-5-fluoro-6-(3-methylpiperazin-1-yl)nicotinamide hydrochloride]	0.21	0.7455	1.6563
Cc1cn2cc(NC(=O)c3ccc(N4CCNC(C)C4)cc3F)cc(Cl)c2n1 (racemic) [Example 54, rac-N-(8-chloro-2-methylimidazo-[1,2-a]pyridin-6-yl)-2-fluoro-4-(3-methylpiperazin-1-yl)benzamide dihydrochloride]	0.0128	0.056	1.8217
Cc1cn2cc(NC(=O)c3ccc(N4CCNC(C)C4)nc3)cc(Cl)c2n1 (racemic) [Example 55, rac-N-(8-chloro-2-methylimidazo[1,2-a]pyridin-6-yl)-6-(3-methylpiperazin-1-yl)nicotinamide dihydrochloride]	0.141	0.7112	1.8752
